# Results from patent publication US8546357B2, “Boron-containing small molecules for controlling ectoparasites” (priority 2011, dated 2013).
# Tested on: Lone star tick larvae (Amblyomma americanum)
# Test: Larval immersion microassay against larval-stage Lone star ticks
# Settings: 0.3 mM, larval immersion microassay, 24 hours
# Description: The larval immersion microassay was conducted as described in detail in White, et al., J. Med. Entomol. 41: 1034-1042 (2004). Compounds of the invention were formulated in dimethylsulfoxide (DMSO) to prepare a stock solution at a concentration of at least 10 mM. Using 96-well microtiter plates, an aliquot of the mM sample was subsequently diluted in a water-based solution containing 1% ethanol and 0.2% Triton X-100, to obtain the desired concentration (typically 0.3 mM or lower) of compound in a volume of 0.1 ml (minimum n=3 replicates per compound or concentration). Approximately 30-50 Lone star tick larvae (Amblyomma americanum) were submerged into each well containing compounds. After a 30 minute immersion period, larvae were removed with a wide-bore pipette tip in 0.05 ml of fluid, dispensed into a commercial paper tissue biopsy bag which was sealed at the top with a plastic dialysis clip, inverted and allowed to air dry for 60 minutes. Bags containing larvae were then incubated at approximately 27 degrees Celsius and >90% relative humidity. After 24 hours, bags were opened, live and dead larvae were counted and percent larval mortality was calculated.
# 7 and 8 contain one chiral center each, and are racemic mixtures comprised of approximately 50% R- and 50% S-enantiomer. In vitro and surrogate animal (rat) studies were conducted to evaluate the biological activity of the R- and S-enantiomers of 7 and 8. For the in vitro study, larvae of the Lone star tick (Amblyomma americanum) were exposed to 9, 10, 11 and 12 using the larval immersion microassay at a concentration of no greater than 0.3 mM. Following exposure, larvae were removed, transferred to a tissue biopsy bag and incubated at approximately 27 degrees Celsius and >90% relative humidity. After 24 hours, biopsy bags were opened and the numbers of live and dead larvae were determined
row,Compound,In vitro activity at 0.3 mM [%]
1,"Cc1cc(C2=NO[C@](c3cc(Cl)c(Cl)c(Cl)c3)(C(F)(F)F)C2)ccc1C(=O)NCc1ccc2c(c1)B(O)OC2(C)C [Compound 10, (R)—N-((1-hydroxy-3,3-dimethyl-1,3-dihydrobenzo[c][1,2]oxaborol-6-yl)methyl)-2-methyl-4-(5-(3,4,5-trichlorophenyl)-5-(trifluoromethyl)-4,5-dihydroisoxazol-3-yl)benzamide]",0.0
2,"Cc1cc(C2=NO[C@](c3cc(Cl)c(F)c(Cl)c3)(C(F)(F)F)C2)ccc1C(=O)NCc1ccc2c(c1)B(O)OC2(C)C [Compound 12, (R)-4-(5-(3,5-Dichloro-4-fluorophenyl)-5-(trifluoromethyl)-4,5-dihydroisoxazol-3-yl)-N-((1-hydroxy-3,3-dimethyl-1,3-dihydrobenzo[c][1,2]oxaborol-6-yl)methyl)-2-methylbenzamide]",0.0

# Same assay, conditions: Amblyomma americanum, 24 h, read-out: activity (percent larval mortality)
row,Compound,mortality at 300 µM [%]
1,"Cc1cc(C2=NOC(c3cc(Cl)c(Cl)c(Cl)c3)(C(F)(F)F)C2)ccc1C(=O)NCc1ccc2c(c1)C(C)(C)OB2O (stereo not drawn) [Compound 1, N-((1-Hydroxy-3,3-dimethyl-1,3-dihydrobenzo[c][1,2]oxaborol-5-yl)methyl)-2-methyl-4-(5-(3,4,5-trichlorophenyl)-5-(trifluoromethyl)-4,5-dihydroisoxazol-3-yl)benzamide]",≥ 80
2,"Cc1cc(C2=NOC(c3cc(Cl)cc(Cl)c3)(C(F)(F)F)C2)ccc1C(=O)NCc1ccc2c(c1)C(C)(C)OB2O (stereo not drawn) [Compound 2, 4-(5-(3,5-Dichlorophenyl)-5-(trifluoromethyl)-4,5-dihydroisoxazol-3-yl)-N-((1-hydroxy-3,3-dimethyl-1,3-dihydrobenzo[c][1,2]oxaborol-5-yl)methyl)-2-methylbenzamide]",≥ 80
3,"Cc1cc(C2=NOC(c3cc(Cl)cc(Cl)c3)(C(F)(F)F)C2)ccc1C(=O)NCc1ccc2c(c1)B(O)OC2 (stereo not drawn) [Compound 4, 4-(5-(3,5-Dichlorophenyl)-5-(trifluoromethyl)-4,5-dihydroisoxazol-3-yl)-N-((1-hydroxy-1,3-dihydrobenzo[c][1,2]oxaborol-6-yl)methyl)-2-methylbenzamide]",≥ 80
4,"CCC1(CC)OB(O)c2cc(CNC(=O)c3ccc(C4=NOC(c5cc(Cl)cc(Cl)c5)(C(F)(F)F)C4)cc3C)ccc21 (stereo not drawn) [Compound 13, 4-(5-(3,5-Dichlorophenyl)-5-(trifluoromethyl)-4,5-dihydroisoxazol-3-yl)-N-((3,3-diethyl-1-hydroxy-1,3-dihydrobenzo[c][1,2]oxaborol-6-yl)methyl)-2-methylbenzamide]",≥ 80
5,"CCC1(CC)OB(O)c2cc(CNC(=O)c3ccc(C4=NOC(c5cc(Cl)c(F)c(Cl)c5)(C(F)(F)F)C4)cc3C)ccc21 (stereo not drawn) [Compound 14, 4-(5-(3,5-Dichloro-4-fluorophenyl)-5-(trifluoromethyl)-4,5-dihydroisoxazol-3-yl)-N-((3,3-diethyl-1-hydroxy-1,3-dihydrobenzo[c][1,2]oxaborol-6-yl)methyl)-2-methylbenzamide]",≥ 80
6,"Cc1cc(C2=NOC(c3cc(Cl)cc(Cl)c3)(C(F)(F)F)C2)ccc1C(=O)NCc1ccc2c(c1)B(O)OC2(CF)CF (stereo not drawn) [Compound 16, N-((3,3-Bis(fluoromethyl)-1-hydroxy-1,3-dihydrobenzo[c][1,2]oxaborol-6-yl)methyl)-4-(5-(3,5-dichlorophenyl)-5-(trifluoromethyl)-4,5-dihydroisoxazol-3-yl)-2-methylbenzamide]",≥ 80
7,"Cc1cc(C2=NOC(c3cc(Cl)c(Cl)c(Cl)c3)(C(F)(F)F)C2)ccc1C(=O)NCc1ccc2c(c1)B(O)OC2(CF)CF (stereo not drawn) [Compound 17a, N-((3,3-Bis(fluoromethyl)-1-hydroxy-1,3-dihydrobenzo[c][1,2]oxaborol-6-yl)methyl)-2-methyl-4-(5-(3,4,5-trichlorophenyl)-5-(trifluoromethyl)-4,5-dihydroisoxazol-3-yl)benzamide]",≥ 80
